Experimental data reported in US4371537A, “Sulfur-substituted phenoxypyridines having antiviral activity” (The Dow Chemical Company, priority 1981, dated 1983).
Converted amounts (≈) assume the structure as drawn.

Columns and labels:
[1] = test system: Coxsackie A21 virus (Cox A21); test: Tissue culture testing, Coxsackie A21 virus in HeLa cells; format: cell-based; conditions: 48 and 72 hours, NA = not active at the standard test conditions, read-out: Cox A21: lowest concentration of the compound necessary to cause a 50 percent reduction in cytopathic effect
Outline: (§1)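 Treatment preceded infection: HeLa cell monolayers took up compound in Eagle's medium containing fetal calf serum, and virus was then applied. Uninfected cultures and cultures without compound acted as references.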

[2] = test system: Rhinovirus Type 60; test: Inhibition of cytopathic effect in WI-38 cell culture tubes, rhinovirus type 60; format: cell-based; conditions: Enterovirus; 25 μg/ml; WI-38 cells; read-out: Inhibition grade, Rhinovirus Type 60
Protocol: (§2) The test compound was dissolved in an appropriate solvent (generally dimethyl sulfoxide) and incubated at 56° C. for at least 15 minutes and this solution was then used to prepare various test solutions having the desired concentration of test compound in preheated WI maintenance medium (49% Eagles, 49% medium 199, 2% fetal calf serum and antibiotics).
(§3) Triplicate cell culture tubes (WI-38 human embryonic lung cell culture tubes) were fed with 1 ml of medium containing the compound at specified concentrations and inoculated with 3-300 TCID50 (3-300 times the tissue culture infective dose 50, i.e., the dose required to infect 50% of the cell cultures tested). Simultaneous viral titrations were performed. The tissue cultures were supplemented with fresh medium when necessary (around 3-4 days) until viral titrations were completed.
(§4) The cell culture tubes were examined dialy for cytopathic effect. […] Comparisons were made at that time with the percentage of cell sheet destruction in tubes containing virus compound mixtures. Observed differences of 75% or more were graded "+", 74-50% as "±", and less than 50% as "-" inhibition.

[3] = test system: Rhinovirus Type 21; test: Inhibition of cytopathic effect in WI-38 cell culture tubes, rhinovirus type 21; format: cell-based; conditions: Enterovirus; 25 μg/ml; WI-38 cells; read-out: Inhibition grade, Rhinovirus Type 21
Protocol: as §2, §3, §4

[4] = test system: Rhinovirus Type 8; test: Inhibition of cytopathic effect in WI-38 cell culture tubes, rhinovirus type 8; format: cell-based; conditions: Enterovirus; 25 μg/ml; WI-38 cells; read-out: Inhibition grade, Rhinovirus Type 8
Protocol: as §2, §3, §4

[5] = Cytotoxicity in tissue culture testing (HeLa monolayers); format: cell-based; conditions: human; HeLa cells; observed at 48 and 72 hours post-treatment; read-out: Cytotoxicity: concentration of the compound found to be toxic to the cell
Outline: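 HeLa monolayers treated with compound in Eagle's medium with fetal calf serum, then challenged with rhinovirus (RV-1A, RV-2, some RV-5, RV-8, RV-64) or Coxsackie A21. Untreated and virus-free cell controls included.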

[6] = test system: rhinovirus type 1A (RV-1A); test: Tissue culture testing, rhinovirus type 1A in HeLa cells; format: cell-based; conditions: Enterovirus, 48 and 72 hours, NA = not active at the standard test conditions, read-out: RV-1A: lowest concentration of the compound necessary to cause a 50 percent reduction in cytopathic effect
Outline: as §1

[7] = test system: Rhinovirus Type 58; test: Inhibition of cytopathic effect in WI-38 cell culture tubes, rhinovirus type 58; format: cell-based; conditions: Enterovirus; 25 μg/ml; WI-38 cells; read-out: Inhibition grade, Rhinovirus Type 58
Protocol: as §2, §3, §4

[8] = test system: Rhinovirus Type 29; test: Inhibition of cytopathic effect in WI-38 cell culture tubes, rhinovirus type 29; format: cell-based; conditions: Enterovirus; 25 μg/ml; WI-38 cells; read-out: Inhibition grade, Rhinovirus Type 29
Protocol: as §2, §3, §4

[9] = test system: Rhinovirus Type 4; test: Inhibition of cytopathic effect in WI-38 cell culture tubes, rhinovirus type 4; format: cell-based; conditions: Enterovirus; 25 μg/ml; WI-38 cells; read-out: Inhibition grade, Rhinovirus Type 4
Protocol: as §2, §3, §4

[10] = test system: Rhinovirus Type 81; test: Inhibition of cytopathic effect in WI-38 cell culture tubes, rhinovirus type 81; format: cell-based; conditions: Enterovirus; 25 μg/ml; WI-38 cells; read-out: Inhibition grade, Rhinovirus Type 81
Protocol: as §2, §3, §4

[11] = test system: Rhinovirus Type 68; test: Inhibition of cytopathic effect in WI-38 cell culture tubes, rhinovirus type 68; format: cell-based; conditions: Enterovirus; 25 μg/ml; WI-38 cells; read-out: Inhibition grade, Rhinovirus Type 68
Protocol: as §2, §3, §4

[12] = test system: Rhinovirus Type 6; test: Inhibition of cytopathic effect in WI-38 cell culture tubes, rhinovirus type 6; format: cell-based; conditions: Enterovirus; 25 μg/ml; WI-38 cells; read-out: Inhibition grade, Rhinovirus Type 6
Protocol: as §2, §3, §4

[13] = test system: Rhinovirus Type 64; test: Inhibition of cytopathic effect in WI-38 cell culture tubes, rhinovirus type 64; format: cell-based; conditions: Enterovirus; 25 μg/ml; WI-38 cells; read-out: Inhibition grade, Rhinovirus Type 64
Protocol: as §2, §3, §4

[14] = test system: rhinovirus type 2 (RV-2); test: Tissue culture testing, rhinovirus type 2 in HeLa cells; format: cell-based; conditions: Enterovirus, 48 and 72 hours, NA = not active at the standard test conditions, read-out: RV-2: lowest concentration of the compound necessary to cause a 50 percent reduction in cytopathic effect
Outline: as §1

[15] = test system: Rhinovirus Type 75; test: Inhibition of cytopathic effect in WI-38 cell culture tubes, rhinovirus type 75; format: cell-based; conditions: Enterovirus; 25 μg/ml; WI-38 cells; read-out: Inhibition grade, Rhinovirus Type 75
Protocol: as §2, §3, §4

[16] = test system: rhinovirus type 8 (RV-8); test: Tissue culture testing, rhinovirus type 8 in HeLa cells; format: cell-based; conditions: Enterovirus, 48 and 72 hours, NA = not active at the standard test conditions, read-out: RV-8: lowest concentration of the compound necessary to cause a 50 percent reduction in cytopathic effect
Protocol: (§5) Monolayered HeLa cells in 16 millimeter (mm) tissue culture dishes were treated with 1 ml of culture medium (Eagles medium supplemented with fetal calf serum) containing subject compound at an appropriate concentration or containing no compound at all. Culture media such as those described herein are more fully described in standard texts, as for example, Kuchler's Biochemical Methods in Cell Culture and Virology, Dowden, Hutchinson and Ross, Inc., Stroudsberg, PA (1977). Following treatment, cells were challenged with 0.05 ml of rhinovirus type 1A (RV-1A), rhinovirus type 2 (RV-2) or Coxsackie A21 virus (Cox A21) in culture medium. Some of the compounds were also tested against rhinovirus type 5 (RV-5), rhinovirus type 8 (RV-8) or rhinovirus type 64 (RV-64). Cell controls received no viruses.
(§6) ^2 Lowest concentration of the compound (μg/ml) necessary to cause

[17] = test system: Rhinovirus Type 17; test: Inhibition of cytopathic effect in WI-38 cell culture tubes, rhinovirus type 17; format: cell-based; conditions: Enterovirus; 25 μg/ml; WI-38 cells; read-out: Inhibition grade, Rhinovirus Type 17
Protocol: as §2, §3, §4

[18] = test system: Rhinovirus Type 19; test: Inhibition of cytopathic effect in WI-38 cell culture tubes, rhinovirus type 19; format: cell-based; conditions: Enterovirus; 25 μg/ml; WI-38 cells; read-out: Inhibition grade, Rhinovirus Type 19
Protocol: as §2, §3, §4

[19] = test system: Rhinovirus Type 56; test: Inhibition of cytopathic effect in WI-38 cell culture tubes, rhinovirus type 56; format: cell-based; conditions: Enterovirus; 25 μg/ml; WI-38 cells; read-out: Inhibition grade, Rhinovirus Type 56
Protocol: as §2, §3, §4

[20] = test system: Cox A21; test: Single Oral Dose test in mice challenged IP with Cox A21; format: in vivo, Swiss male mice; conditions: 600 mg/kg P.O. 3 h after IP challenge; >3.84 significant (95% confidence level)
Protocol: In addition, some of the compounds were tested in animals utilizing the following procedure, hereinafter referred to as the "Single Oral Dose" test. Swiss male mice, 8-12 grams in weight were challenged intraperitoneally (IP) with 0.2 ml of a normally lethal dose, i.e., a virus dose sufficient to cause […].80-100% mortality in infected animals within 10 days of challenge of Cox A21, in phosphate buffered saline containing 1% heat inactivated fetal calf serum. Three hours later mice were treated orally (P.O.) with 0.2 ml of compound suspended in 0.5% hydroxypropyl methylcellulose (Methocel) or with 0.2 ml of 0.5% Methocel containing no compound. […] Mice were observed daily for 7-10 days post-challenge and deaths recorded. A modified Mantel-Haenzel combined chi-square procedure was used to determine significant difference between virus control and treated groups. Chi-square values greater than 3.84 are considered significant (95% confidence level) in this test.

[21] = test system: rhinovirus type 5 (RV-5); test: Tissue culture testing, rhinovirus type 5 in HeLa cells; format: cell-based; conditions: Enterovirus, 48 and 72 hours, NA = not active at the standard test conditions, read-out: RV-5: lowest concentration of the compound necessary to cause a 50 percent reduction in cytopathic effect
Protocol: as §5, §6

[22] = test system: Hanks Untyped; test: Inhibition of cytopathic effect in WI-38 cell culture tubes, Hanks Untyped; format: cell-based, rhinovirus; conditions: Enterovirus; 25 μg/ml; WI-38 cells; read-out: Inhibition grade, Hanks Untyped
Protocol: as §2, §3, §4

[23] = test system: Rhinovirus Type 13; test: Inhibition of cytopathic effect in WI-38 cell culture tubes, rhinovirus type 13; format: cell-based; conditions: Enterovirus; 25 μg/ml; WI-38 cells; read-out: Inhibition grade, Rhinovirus Type 13
Protocol: as §2, §3, §4

[24] = test system: Rhinovirus Type 74; test: Inhibition of cytopathic effect in WI-38 cell culture tubes, rhinovirus type 74; format: cell-based; conditions: Enterovirus; 25 μg/ml; WI-38 cells; read-out: Inhibition grade, Rhinovirus Type 74
Protocol: as §2, §3, §4

[25] = test system: Rhinovirus Type 39; test: Inhibition of cytopathic effect in WI-38 cell culture tubes, rhinovirus type 39; format: cell-based; conditions: Enterovirus; 25 μg/ml; WI-38 cells; read-out: Inhibition grade, Rhinovirus Type 39
Protocol: as §2, §3, §4

[26] = test system: Rhinovirus Type 59; test: Inhibition of cytopathic effect in WI-38 cell culture tubes, rhinovirus type 59; format: cell-based; conditions: Enterovirus; 25 μg/ml; WI-38 cells; read-out: Inhibition grade, Rhinovirus Type 59
Protocol: as §2, §3, §4

[27] = test system: Rhinovirus Type 10; test: Inhibition of cytopathic effect in WI-38 cell culture tubes, rhinovirus type 10; format: cell-based; conditions: Enterovirus; 25 μg/ml; WI-38 cells; read-out: Inhibition grade, Rhinovirus Type 10
Protocol: as §2, §3, §4

[28] = test system: Coxsackie A21 virus; test: Continuous Oral Feeding test in mice challenged IP with Coxsackie A21 virus; format: in vivo; conditions: po, 0.06 % in diet, 240 h
Protocol: Some of the compounds were also tested in animals utilizing the following procedure, hereainafter referred to as the "Continuous Oral Feeding" test. Coxsackie A21 virus grown on HeLa cells was administered at a concentration that produces 80 to 100% deaths in mice weighing 8 to 12 grams within 10 days, when the mice are injected (IP) with 0.2 ml of virus preparation. Mice were placed on diets containing test compound dispersed in plain commercially available rodent mash chow at a concentration of 0.06% (weight percent) on day 0. On day 1 the mice were challenged with the virus preparation, 0.2 ml/mouse, (IP). Deaths in both control and experimental groups were recorded for the 10 days and the results analyzed by a chi-square (.chi.^2) test. Chi-square values greater than 3.84 indicate the compound is active (95% confidence level).

[29] = test system: RV-1A, RV-2 or Cox A21; test: Summary of HeLa tissue culture testing against the test viruses; format: cell-based, rhinovirus types 1A and 2, Coxsackie A21 virus; conditions: for antiviral activity in tissue culture: active on RV-1A and RV-2 at a test concentration equivalent to the cytotoxic concentration
Protocol: as §5

CS(=O)(=O)c1ccc(Oc2ccc(Cl)c(Cl)c2)nc1 [Example 40, 2-(3,4-dichlorophenoxy)-5-(methylsulfonyl)pyridine]
EC50 [1]: ≤ 6.25 µg/mL
inhibition at 25 µg/mL [2]: 50 to 74%
inhibition at 25 µg/mL [3]: ≥ 75%
inhibition at 25 µg/mL [4]: < 50%
MCC [5]: 50 µg/mL
EC50 [6]: ≤ 0.31 µg/mL
inhibition at 25 µg/mL [7]: ≥ 75%
inhibition at 25 µg/mL [8]: ≥ 75%
inhibition at 25 µg/mL [9]: < 50%
inhibition at 25 µg/mL [10]: ≥ 75%
inhibition at 25 µg/mL [11]: ≥ 75%
inhibition at 25 µg/mL [12]: < 50%
inhibition at 25 µg/mL [13]: ≥ 75%
EC50 [14]: 0.625 µg/mL (≈ 1.96 µM)
inhibition at 25 µg/mL [15]: < 50%
EC50 [16]: ~12.5 µg/mL (≈ 39.3 µM)
inhibition at 25 µg/mL [17]: ≥ 75%
inhibition at 25 µg/mL [18]: ≥ 75%
inhibition at 25 µg/mL [19]: ≥ 75%
Single Oral Dose X^2 (chi-square, deaths vs virus control) [20]: 22.807
EC50 [21]: 25 µg/mL (≈ 78.6 µM)
inhibition at 25 µg/mL [22]: ≥ 75%
inhibition at 25 µg/mL [23]: ≥ 75%
inhibition at 25 µg/mL [24]: ≥ 75%
inhibition at 25 µg/mL [25]: ≥ 75%
inhibition at 25 µg/mL [26]: 50 to 74%
inhibition at 25 µg/mL [27]: ≥ 75%

CC(C)S(=O)(=O)c1ccc(Oc2ccc(C(=O)c3ccccc3)cc2)nc1 [Example 51]
MCC [5]: 4 µg/mL
EC50 [6]: 4 µg/mL (≈ 10.5 µM)
Continuous Oral Feeding X^2 (chi-square, deaths vs control) [28]: 17.705
EC50 [14]: 2 µg/mL (≈ 5.24 µM)
Single Oral Dose X^2 (chi-square, deaths vs virus control) [20]: 3.085
antiviral activity in initial tissue culture testing ([29]; initial test): did not show activity against the test viruses
antiviral activity on retest ([29]; retest (data in Table 3), RV-1A and RV-2): did show activity against RV-1A and RV-2

CCS(=O)(=O)c1cccnc1Oc1ccc(Cl)c(Cl)c1 [2-(3,4-dichlorophenoxy)-3-(ethylsulfonyl)pyridine]
antiviral activity in tissue culture [29]: only marginally active

CS(=O)(=O)c1cccc(Oc2ccc(Br)cc2)n1 [2-(4-bromophenoxy)-6-(methylsulfonyl)pyridine]
antiviral activity in tissue culture [29]: only marginally active
